This note sets out measurements from US20090285773A1, “Hepatitis C Virus Inhibitors” (Bristol-Myers Squibb Company, priority 2008, published 2009).

Like-named read-outs stand apart in the source and are kept apart here.

For orientation: EC50 means the concentration giving half of the maximal effect.

For experiment [1], the target named is HCV NS3/4A protease complex, BMS strain (genotype 1a) (UniProt P27958, species not given/STRAIN_BMS). In words: FRET peptide assay, HCV NS3/4A protease complex, BMS strain. The following applies: read-out: IC50 against the NS3/4A BMS strain in the enzyme assay. The format is biochemical. An excerpt: HCV NS3 protease complexes, derived from the BMS strain, H77 strain or J4L6S strain, were generated, as described below. These purified recombinant proteins were generated for use in a homogeneous assay (see below) to provide an indication of how effective compounds of the present disclosure would be in inhibiting HCV NS3 proteolytic activity.
Serum from an HCV-infected patient was obtained from Dr. T. Wright, San Francisco Hospital. […]
In order to monitor HCV NS3/4A protease activity, an NS3/4A peptide substrate was used. […] The peptide also contains a fluorescence donor, EDANS, near one end of the peptide and an acceptor, DABCYL, near the other end. The fluorescence of the peptide is quenched by […] resonance energy transfer (RET) between the donor and the acceptor, but as the NS3 protease cleaves the peptide the products are released from RET quenching and the fluorescence of the donor becomes apparent.
The peptide substrate was incubated with one of the three recombinant NS3/4A protease complexes, in the absence or presence of a compound of the present disclosure. The inhibitory effects of a compound were determined by monitoring the formation of fluorescent reaction product in real time using a Cytofluor Series 4000. […]

Experiment [2] deals with HCV replicon (strain 1b) in HUH-7 cells. In words: HCV replicon FRET assay. In kind it is cell-based. The following applies: Hepatitis C virus. An excerpt:
An HCV replicon whole cell system was established as described by Lohmann V, Korner F, Koch J, Herian U, Theilmann L, Bartenschlager R., Science 285(5424): 110-3 (1999). This system enabled us to evaluate the effects of our HCV Protease compounds on HCV RNA replication. Briefly, using the HCV strain 1b sequence described in the Lohmann paper (Assession number:AJ238799), an HCV cDNA was synthesized by Operon Technologies, Inc. (Alameda, Calif.), and the full-length replicon was then assembled in plasmid pGem9zf(+) (Promega, Madison, Wis.) using standard molecular biology techniques. The replicon consists of (i) the HCV 5′ UTR fused to the first 12 amino acids of the capsid protein, (ii) the neomycin phosphotransferase gene (neo), (iii) the IRES from encephalomyocarditis virus (EMCV), and (iv) HCV NS3 to NS5B genes and the HCV 3′ UTR. Plasmid DNAs were linearized with ScaI and RNA transcripts were synthesized in vitro using the T7 MegaScript transcription kit (Ambion, Austin, Tex.) according to manufacturer's directions. In vitro transcripts of the cDNA were transfected into the human hepatoma cell line, HUH-7. […] Resulting cell lines were characterized for positive and negative strand RNA production and protein production over time.
The HCV replicon FRET assay was developed to monitor the inhibitory effects of compounds described in the disclosure on HCV viral replication. HUH-7 cells, constitutively expressing the HCV replicon, were grown in Dulbecco's Modified Eagle Media (DMEM) (Gibco-BRL) containing 10% Fetal calf serum (FCS) (Sigma) and 1 mg/ml G418 (Gibco-BRL). Cells were seeded the night before (1.5×10^4 cells/well) in 96-well tissue-culture sterile plates. Compound and no compound controls were prepared in DMEM containing 4% FCS, 1:100 Penicillin/Streptomysin (Gibco-BRL), 1:100 L-glutamine and 5% DMSO in the dilution plate (0.5% DMSO final concentration in the assay). Compound/DMSO mixes were added to the cells and incubated for 4 days at 37° C. After 4 days, cells were first assessed for cytotoxicity using alamar Blue (Trek Diagnotstic Systems) for a CC50 reading. The toxicity of compound (CC50) was determined by adding 1/10th volume of alamar Blue to the media incubating the cells. After 4 h, the fluorescence signal from each well was read, with an excitation wavelength at 530 nm and an emission wavelength of 580 nm, using the Cytofluor Series 4000 (Perspective Biosystems). Plates were then rinsed thoroughly with Phosphate-Buffered Saline (PBS) (3 times 150 μl).
For orientation: In antiviral work, replicon cells carry a viral genome segment that copies itself.

HCV NS3/4A protease complex, BMS strain (genotype 1a), sequence (P27958 1027-1657, stated change not applied, one chain of several): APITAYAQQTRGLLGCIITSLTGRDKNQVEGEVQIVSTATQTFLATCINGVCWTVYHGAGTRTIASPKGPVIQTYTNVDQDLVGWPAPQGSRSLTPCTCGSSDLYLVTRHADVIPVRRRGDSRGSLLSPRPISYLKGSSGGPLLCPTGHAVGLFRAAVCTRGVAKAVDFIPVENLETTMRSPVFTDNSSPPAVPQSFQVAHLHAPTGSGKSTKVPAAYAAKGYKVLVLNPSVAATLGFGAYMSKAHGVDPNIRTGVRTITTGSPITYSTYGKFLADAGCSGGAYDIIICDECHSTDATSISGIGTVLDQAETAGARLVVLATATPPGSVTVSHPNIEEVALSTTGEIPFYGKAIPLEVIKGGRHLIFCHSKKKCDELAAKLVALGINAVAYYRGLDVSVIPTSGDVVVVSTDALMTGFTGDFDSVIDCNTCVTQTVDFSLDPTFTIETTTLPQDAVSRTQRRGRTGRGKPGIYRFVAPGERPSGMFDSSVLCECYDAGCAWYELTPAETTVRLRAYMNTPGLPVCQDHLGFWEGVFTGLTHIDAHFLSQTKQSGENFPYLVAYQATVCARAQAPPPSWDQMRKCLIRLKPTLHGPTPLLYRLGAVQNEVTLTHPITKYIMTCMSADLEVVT

On to `COc1ccc2c(O[C@@H]3C[C@H]4C(=O)N[C@]5(C(=O)NS(=O)(=O)C6CC6)C[C@H]5/C=C\CCCCC[C@H](Nc5ccc(OC)nc5)C(=O)N4C3)nccc2c1` (single isomer, unassigned) [Compound 1], for which the IC50 in experiment [1] came out at 0.0087 µM. The EC50 in experiment [2] (96 h, HUH-7 replicon cells, 4 days, read-out: EC50 value in the replicon FRET assay) stood at 0.021 µM; in experiment [2] (Huh-7, Table 2, replicon assay variant and unit inferred, read-out: EC50), 0.0205 µM.
